Assay results: patent US8404225B2, “Contact sex pheromone component of the Emerald Ash Borer Agrilus planipennis Fairmaire (Coleoptera: Buprestidae)” (National Research Council of Canada, priority 2008, dated 2013)

Columns and labels:
[1] = tested on: brown Spruce Longhorn Beetle (BSLB); details: inventors' soon to be published research; cited from earlier work
[2] = tested on: feral EAB males (Agrilus planipennis); experiment: Behavioral field bioassay with dummy females (feral male contact and mating behaviour); format: in vivo
Method: Preparation of dummy females. A total of 78 EAB females that emerged from 10-15 Jul. 2008 were reared for the field bioassay. Female EAB were reared in the quarantine facilities, as described above, until the age of 14 days, when they were frozen. Prior to the field bioassay, females were removed from the freezer and thawed for 2-3 h. For 52 of the females, each female was individually rinsed in 1 ml of hexane for about 2 min. Females were then allowed to dry for a minimum of 30 min before being rinsed again. Females were rinsed a total of three times for 2 min each time and left to dry overnight after the final rinsing. All 78 females were then individually pinned through the right elytra at its base; the heads of the pins were then snipped off such that the end of the pin was only about 1 mm above the surface of the female's body and thus would not interfere with approaches by feral male EAB. Twenty-six of the rinsed females were then treated with 1 μl of racemic 9-methyl pentacosane (ca. 5 mg/ml; one female equivalent), in solution with hexane, and allowed to dry. This divided the 78 females into three treatment groups (unwashed, washed, and washed then treated). The treatment groups were indicated by pinning a small paper insect ‘point’ underneath the female that was not visible from above. The points were colored white (unwashed), yellow (washed) or blue (washed then treated). […] Females were kept at 3-4° C. in a fridge for 2 days until used in the bioassay and were transported to the field in a cooler.
Behavioral field bioassay. The field bioassay was conducted from 7-11 Jul. 2008 at a site about 1.8 km northeast of Port Lambton, ON (42° 40.16′ N, 82° 29.56′ W). […] Dummy females were pinned to foliage on epicormic shoots of infested ash trees, growing from the base of the tree up to about 1.5 m above the ground. Females were placed and removed from foliage by grasping the pin underneath the female with tweezers and were never touched directly to avoid cross-contamination. Trees were chosen based on the presence of both epicormic shoots and feral EAB males on the foliage. Dummy females were placed in a triangle shape in groups of three (one of each treatment) about 20-30 cm apart. All females were pinned on south-facing foliage so that they would be in direct sunlight. From nine to 21 females were set up at different times on different trees, based on the amount of foliage available.
Observations of dummy females began once all females were established on the foliage, and lasted for about 1 h per observation session with breaks of 5-10 min in between observation sessions. We recorded the time of arrival of each male observed to land on a female and then the time of departure for that same male to obtain its total time spent in contact with a given female. The locations of the various treatments were not recorded, so the observations on time spent in contact by males was collected by observers who were unaware of the treatment. The treatment group (unwashed, treated, washed) was then recorded by checking for the presence of the colored insect point under the female's abdomen after the male had flown away. […]
The amount of time individual males spent in contact, and the percentage of that time spent attempting to mate, with females of the three different treatments were analyzed by one-way ANOVA after logarithmic transformation of data to meet the assumptions of normality of data and equality of variance; means were compared using the Holm-Sidak test. […]

In the case of `CCCCCCCCCCCCCC[C@@H](C)CCCCCCCCCC` (single isomer, unassigned) [11S-enantiomer], the “activity as a contact sex pheromone” value [1] is given as “demonstrated activity”.
With `CCCCCCCCCCCCCCCCC(C)CCCCCCCC` (racemic) [9-Me-C25, 9-methyl pentacosane] the “number of wild males landing on females” value ([2]; hexane-washed freeze-killed females treated with 1 μl racemic 9-methyl pentacosane (ca. 5 mg/ml; one female equivalent), field, about 40 h of observation) was 27, the “percentage of contact time spent attempting to mate” value ([2]; subset of feral males (n=7 observations), one figure printed for unwashed and 9-Me-C25-treated females together, washed females about 20%) was 60%-70% and the “contact and copulatory activity after reapplication to hexane-rinsed females” value ([2]; synthetic 9-Me-C25 reapplied, field bioassays) was “restored almost all contact and copulatory activity”. For the same compound, the “time males spent on treated females compared with washed females” value ([2]; treated (n=27 observations) vs hexane-washed females (n=43), t=3.817, P=0.00004) was “significantly longer” and the “time males spent on treated females compared with unwashed females” value ([2]; treated (n=27 observations) vs unwashed females (n=36), t=0.138, P=0.89) was “slightly, but not significantly, less”.
